Reference: US20130324522A1, “INSECT ODORANT RECEPTOR ANTAGONISTS” (THE ROCKEFELLER UNIVERSITY, priority 2010, published 2013)
Like-named read-outs stand apart in the source and are kept apart here.

Tests used:
Assay type in all cases: cell-based
OR10/OR7 = OR10/OR7 (Anopheles gambiae, UniProt B5U0U7+Q7QCC7); assay: Ca2+-imaging of stable HEK293T cell line OR10/OR7; settings: for inhibition at 4 µM: HEK-293T, read-out: Percent Inhibition OR10 OR7
Description: Stable cell lines OR1/OR7, OR2/OR7, OR8/OR7, OR10/OR7, OR28/OR7 and TRPM8 were generated from HEK293T cells. HEK293T-based cell lines were cultured in DMEM supplemented with these additional antibiotics: 6 μg/mL blasticidin and 1 μg/mL puromycin, with the exception of the TRPM8 cell lines, which was cultured in DMEM supplemented with 1 μg/mL puromycin.
After one day of incubation, the transfected cells were transferred into 10 cm dishes with DMEM containing antibiotics as follows: • 0.5 μg/mL of blasticidin for OR1/OR7, OR2/OR7, OR8/OR7, OR10/OR7, OR28/OR7 • 0.2 μg/mL of puromycin for TRPM8.
(§1) Stable cell lines were cultured in 10 cm dishes, and confluent cells (70-80%) were trypsinized. 10,000 cells/20 μL were transferred into each well of 384-well plates coated with poly-D-lysine, and cultured for 2 days. For Flip-In T-Rex cells (cell lines expressing Or47a/Or83b and 5HT3), 5 μL of tetracycline (5 μg/mL) were added 1 day before the assay. 20 μL of Ca-4 dye was loaded into each well for 1.5 hr at room temperature in the dark, and the dye-loaded plates were subjected to Ca^2+-imaging using a Hamamatsu FDSS6000 real time fluorescence plate reader. Odorant solutions (9× final concentration) were prepared by dissolving 1M stock solutions into Hank's Buffered Salt Solution (HBSS), and 30 μL of odor solution was transferred to each well in 384-well plates.
(§2) Compounds ([…] in DMSO) were stored in 384-well plates, and last two columns (32 wells total) contained only DMSO. 200 nL of small compounds were transferred into the odorant plates before the assay using the Perkin-Elmer Janus workstation. The odorant plates were spun down to remove air bubbles, and placed on the FDSS6000 plate loader, and 5 μL of odorant solution was applied to the cell plate on the FDSS6000. Ca^2+ increase was monitored with fluorescence at 525 nm by excitation at 485 nm.

mOREG = biological target: T1, mOREG (Mus musculus, UniProt Q920P2); assay: Ca2+-imaging, control receptor mOREG; settings: read-out: Percent Inhibition mOREG
T1 sequence (Q920P2 1-313): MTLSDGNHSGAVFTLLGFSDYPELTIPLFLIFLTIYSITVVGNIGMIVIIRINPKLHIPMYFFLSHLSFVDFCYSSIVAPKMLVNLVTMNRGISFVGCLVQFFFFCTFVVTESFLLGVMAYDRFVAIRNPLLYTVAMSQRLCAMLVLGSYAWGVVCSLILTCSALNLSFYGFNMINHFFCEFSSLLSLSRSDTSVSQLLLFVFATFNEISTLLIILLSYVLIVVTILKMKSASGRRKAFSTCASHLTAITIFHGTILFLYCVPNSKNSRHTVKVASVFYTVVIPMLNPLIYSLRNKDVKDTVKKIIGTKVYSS
Description: as §1, with “plates. The last two columns of the plate (32 wells total) were used as control wells as follows: • negative control with HBSS buffer (16 wells) • positive control with ligands (16 wells).” for “plates.”
as §2

[1] = biological target: T2, serotonin receptor (5HT3) (Mus musculus, UniProt P23979); assay: Ca2+-imaging of stable Flip-In T-Rex cell line 5HT3; settings: for inhibition at 4 µM: read-out: Percent Inhibition 5HT3
T2 construct: Full-length cDNAs for mosquito (Anopheles gambiae) odorant receptor; expressed in transfected cells
T2 sequence (P23979 24-489): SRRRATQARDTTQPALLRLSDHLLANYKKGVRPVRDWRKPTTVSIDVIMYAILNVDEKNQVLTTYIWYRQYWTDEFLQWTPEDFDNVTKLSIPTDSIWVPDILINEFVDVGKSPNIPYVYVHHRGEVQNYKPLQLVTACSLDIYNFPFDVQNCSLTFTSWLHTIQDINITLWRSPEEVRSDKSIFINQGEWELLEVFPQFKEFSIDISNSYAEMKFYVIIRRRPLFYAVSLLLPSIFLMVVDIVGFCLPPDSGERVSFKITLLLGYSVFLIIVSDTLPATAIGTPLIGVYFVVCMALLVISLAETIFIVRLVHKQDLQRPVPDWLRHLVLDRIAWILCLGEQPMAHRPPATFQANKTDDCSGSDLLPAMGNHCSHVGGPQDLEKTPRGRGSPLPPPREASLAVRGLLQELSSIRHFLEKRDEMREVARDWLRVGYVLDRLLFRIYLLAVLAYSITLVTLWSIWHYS
Description: Full-length cDNAs for mosquito (Anopheles gambiae) odorant receptor (OR1, OR2, OR7, OR8, OR28), and fly (Drosophila melanogaster) odorant receptor (Or47a, Or83b), mouse TRP channel (TRPM8), and mouse serotonin receptor (5HT3) were obtained and subcloned into mammalian expression vectors. The following mammalian expression vectors were used:
Stable cell lines Or47a/Or83b and 5HT3 were generated from Flip-In T-Rex cells. Flip-In T-Rex-based cell lines were cultured in DMEM supplemented with these additional antibiotics: 6 μg/mL blasticidin and 100 μg/mL hygromycin.
Cells were trypsinized and split into 35 mm dishes 1 day before transfection. Confluent cells (60-70%) in 35 mm dishes were co-transfected with 1 μg of Or47a/Or83b plasmid in pcDNA5/FRT/TO/IRES plus the pOG44 plasmid or 1 μg of 5HT3 plasmid in pcDNA5/FRT/TO plus the pOG44 plasmid using lipofectamine 2000. Co-transfection of pOG44 and pcDNA5/FRT/TO/IRES or pcDNA5/FRT/TO allows expression of Flp recombinase and integration of the pcDNA5 plasmid into the genome via the FRT site. After one day of incubation, the transfected cells were transferred into 10 cm dishes with DMEM containing antibiotics: 20 μg/mL of hygromycin and 6 μg/mL of blasticidin. The concentration of Hygromycin was increased to 100 μg/mL when the population of cells became 30-40% confluent. The cells were cultured by changing medium every two days until cell clumps appeared. The clumps were picked and transferred into 96 well plates with DMEM containing 100 μg/mL of Hygromycin and 6 μg/mL of blasticidin. The cells were grown and transferred to 24 well plates, and ligand-evoked calcium increases were tested using the Hamamatsu FDSS6000 real time fluorescence plate reader.
as §1, §2

[2] = ligand indole 30 μM, read-out: IC50 OR10 OR7
[3] = ligand serotonin 10 μM, read-out: IC50 5HT3

OR10/OR7, sequence (Q7QCC7 whole entry): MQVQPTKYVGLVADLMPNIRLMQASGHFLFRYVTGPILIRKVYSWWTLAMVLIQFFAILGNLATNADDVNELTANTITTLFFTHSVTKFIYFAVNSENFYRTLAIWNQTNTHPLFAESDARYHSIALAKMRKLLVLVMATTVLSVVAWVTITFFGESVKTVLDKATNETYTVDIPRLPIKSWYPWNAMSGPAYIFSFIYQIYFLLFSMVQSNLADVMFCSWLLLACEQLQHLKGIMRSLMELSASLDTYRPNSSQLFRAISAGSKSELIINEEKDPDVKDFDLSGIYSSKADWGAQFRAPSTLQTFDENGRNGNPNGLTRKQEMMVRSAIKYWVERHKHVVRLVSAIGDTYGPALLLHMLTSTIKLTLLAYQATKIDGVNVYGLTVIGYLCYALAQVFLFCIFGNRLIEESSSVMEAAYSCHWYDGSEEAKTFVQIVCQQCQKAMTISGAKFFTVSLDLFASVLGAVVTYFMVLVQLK
OR10/OR7, sequence (B5U0U7 entry or part of it): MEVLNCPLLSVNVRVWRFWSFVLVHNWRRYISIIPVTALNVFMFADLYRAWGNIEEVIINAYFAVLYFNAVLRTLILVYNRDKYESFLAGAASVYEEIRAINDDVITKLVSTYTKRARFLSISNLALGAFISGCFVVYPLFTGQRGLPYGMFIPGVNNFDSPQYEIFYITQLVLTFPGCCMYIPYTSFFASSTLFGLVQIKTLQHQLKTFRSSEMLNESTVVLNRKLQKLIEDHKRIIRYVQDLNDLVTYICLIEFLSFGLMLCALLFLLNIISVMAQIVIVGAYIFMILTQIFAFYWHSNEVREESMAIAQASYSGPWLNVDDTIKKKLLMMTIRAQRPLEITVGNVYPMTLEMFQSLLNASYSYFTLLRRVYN

Structure (SMILES) | inhibition at 4 µM (OR10/OR7; compound applied at 4 μM) [%] | inhibition at 4 µM (mOREG; compound applied at 4 μM) [%] | inhibition at 4 µM ([1]; compound applied at 4 μM) [%] | IC50 (OR10/OR7) [µM] | IC50 [1, 3] [µM] | further results
COc1ccccc1CC(=O)N1CCOC(COc2ccc(C)cc2)C1 (stereo not drawn) [RU-0050390] | < 25 | < 25 | < 25 | – | – | –
CCN(CC)c1onc(-c2ccc(F)cc2)c1CN(CCCOC)C(=O)c1ccc2c(c1)OCO2 [RU-0036983] | 26 to 50 | 26 to 50 | 26 to 50 | – | – | –
CC(C)CN(Cc1nccn1Cc1ccc(Cl)cc1Cl)C(=O)c1ccccc1F [RU-0055322] | 51 to 74 | 26 to 50 | < 25 | – | – | IC50 (OR10/OR7; Table B, read-out: IC50 OR10): < 0.1 µM
CCNc1nc(NC(C)C)nc(N(C#N)Cc2ccccc2)n1 [RU-0015806] | 26 to 50 | < 25 | 51 to 74 | – | – | IC50 (OR10/OR7; Table B, read-out: IC50 OR10): > 1 µM; IC50 ([1]; Table B, read-out: IC50 5HT3): > 1 µM
Cc1cc(C)c(Cn2ccnc2CN(C(=O)c2ccccc2F)C(C)C)c(C)c1 [RU-0048001] | > 75 | 26 to 50 | < 25 | – | – | IC50 (OR10/OR7; Table B, read-out: IC50 OR10): < 0.1 µM
COc1ccccc1C(=O)C1CCCN(C(=O)c2cccc(N3CCOCC3)c2)C1 (stereo not drawn) [RU-0029350] | 51 to 74 | 26 to 50 | < 25 | – | – | IC50 (OR10/OR7; Table B, read-out: IC50 OR10): > 1 µM
C=CCOc1cccc(C(=O)N2CCCC(C(=O)c3ccccc3OC)C2)c1 (stereo not drawn) [RU-0029409] | 26 to 50 | < 25 | < 25 | – | – | –
CCN(CC)C(=O)Oc1ccc2c(ccn2Cc2ccccc2Cl)c1NC(=O)CCCCC(=O)OC [RU-0075446] | – | – | – | < 0.1 | – | inhibition at 4 µM (OR10/OR7): > 75%; inhibition at 4 µM (mOREG): < 25%; inhibition at 4 µM [1]: 26 to 50%
c1ccc(CNc2nc(NCc3ccco3)nc(N3CCOCC3)n2)cc1 [RU-0020050] | < 25 | 26 to 50 | 26 to 50 | – | – | –
CC(C)CN(Cc1nccn1Cc1c(F)cccc1Cl)C(=O)c1ccc(F)cc1 [RU-0048054] | 51 to 74 | < 25 | < 25 | – | – | IC50 (OR10/OR7; Table B, read-out: IC50 OR10): < 0.1 µM
COCCN(Cc1c(-c2ccccc2)noc1N(C)C1CCCCC1)C(=O)c1ccccc1OC [RU-0037275] | < 25 | 26 to 50 | 26 to 50 | – | – | –
CCN(C)c1onc(-c2ccccc2)c1CN(CCCOC)C(=O)c1ccco1 [RU-0051926] | 26 to 50 | < 25 | 51 to 74 | – | – | IC50 ([1]; Table B, read-out: IC50 5HT3): 0.1 to 1 µM
C=CCNC(=O)C(NC(=O)c1cccc(C)c1)C1CCN(C(=O)c2cccc(Br)c2)CC1 (stereo not drawn) [RU-0039123] | 26 to 50 | 26 to 50 | 26 to 50 | – | – | –
COc1ccc(-n2c(Cc3ccccc3)nnc2SCCCC(=O)N2CCN(C(=O)c3ccc(C(F)(F)F)cc3)C(C)C2)cc1 (stereo not drawn) [RU-0071828] | 26 to 50 | 26 to 50 | 26 to 50 | – | – | IC50 (OR10/OR7; Table B, read-out: IC50 OR10): > 1 µM
COc1ccc(OCC(=O)N2CCOC(Cc3ccccc3)C2)cc1 (stereo not drawn) [RU-0050384] | < 25 | < 25 | < 25 | – | – | –
Fc1cccc(Cl)c1Cn1ccnc1CN(CC1CCCC1)C1CC1 [RU-I4] | – | – | – | – | > 20 | IC50 (OR10/OR7; [2]): > 20 µM
CCN(CC)c1onc(-c2ccccc2)c1CN(CC1CCCO1)C(=O)c1ccco1 (stereo not drawn) [RU-0036855] | < 25 | 26 to 50 | < 25 | – | – | –

Structure (SMILES) | inhibition at 4 µM (OR10/OR7; compound applied at 4 μM) [%] | inhibition at 4 µM (mOREG; compound applied at 4 μM) [%] | inhibition at 4 µM ([1]; compound applied at 4 μM) [%] | IC50 (OR10/OR7) [µM] | IC50 [1, 3] [µM] | further results
COCCCN(Cc1c(-c2ccccc2)noc1N(C)C(C)C)C(=O)c1ccccc1OC [RU-0037003] | < 25 | 26 to 50 | 26 to 50 | – | – | –
CCCCCCCC(=O)N1CCCC(C(=O)NC2CCCC[C@H]2NC(=O)c2ccccc2C)C1 (stereo partly drawn) [RU-0045756] | < 25 | 26 to 50 | < 25 | – | – | –
O=C(c1nccn1Cc1c(F)cccc1Cl)N(CC1CCCC1)C1CC1 [RU-I3] | – | – | – | – | 2 to 20 | IC50 (OR10/OR7; [2]): 2 to 20 µM
CC(C)Nc1nc(Cl)nc(NC(C)C)n1 [RU-T1] | – | – | – | > 20 | > 20 | –
CCNc1nc(NCC)nc(SC)n1 [RU-T4] | – | – | – | 20 to 50 | 20 to 50 | –
CN(Cc1nccn1Cc1c(F)cccc1Cl)C(=O)C1CCCC1 [RU-I5] | – | – | – | – | 2 to 20 | IC50 (OR10/OR7; [2]): > 20 µM
CCNc1nc(Cl)nc(NC(C)C)n1 [RU-T5] | – | – | – | 2 to 20 | > 20 | –
CC(C)Nc1nc(NC(C)C)nc(C(F)(F)F)n1 [RU-T8] | – | – | – | > 20 | – | IC50 [1]: > 20 µM
CCNc1nc(NC(C)C)nc(SC)n1 [RU-T3] | – | – | – | 2 to 20 | 20 to 50 | –
CSc1nc(NC(C)C)nc(NC(C)C)n1 [RU-T2] | – | – | – | 2 to 20 | 2 to 20 | –
Cc1nc(NC(C)C)nc(NC(C)C)n1 [RU-T6] | – | – | – | > 20 | – | IC50 [1]: > 20 µM
CCN(CC)C(=O)c1cccc(C)c1 [DEET, N,N-diethyl-m-toluamide, reference compound] | – | – | – | – | > 50 | IC50 (OR10/OR7; [2]): > 50 µM
CC(C)Nc1nc(Cl)nc(NCc2ccccc2)n1 [RU-T9] | – | – | – | > 20 | – | IC50 [1]: > 50 µM
CC(C)Nc1nc(Cl)nc(N(C)C(C)C)n1 [RU-T7] | – | – | – | > 20 | – | IC50 [1]: > 20 µM
C=CCN(Cc1nccn1Cc1cccc(F)c1)C(=O)c1ccccc1F [RU-I1] | – | – | – | – | 20 to 50 | IC50 (OR10/OR7; [2]): 2 to 20 µM
O=C(C1CCCC1)N(Cc1nccn1CCc1c(F)cccc1Cl)C1CC1 [RU-I2] | – | – | – | – | 2 to 20 | IC50 (OR10/OR7; [2]): 2 to 20 µM
